Assays:
[1] = test system: pRb; assay: Western blot of pRb in HeLa cells; type: cell-based, human; conditions: 16 hours
Description: (B and C) Western blot analysis. 50 μg of protein were separated in 8% (for pRb) and 12% SDS-PAGE gels. After electrotransfer, the filters were incubated with pRb, E2F-1 (B) and (C) p53 specific antibodies. Equal protein loading was confirmed with a monoclonal actin antibody.
(§1) Cellular extracts were separated in 8-12% SDS PAGE gels and electrotransferred as described elsewhere (Finzer et al., Oncogene 19 (2000), 3235-3244; Soto et al., Oncogene 18 (1999), 3187-3198). The following antibodies were used: cyclin E (HE 12), cyclin D 1 (HD 11), cdk2 (M2), (D-12; Santa Cruz Biotechnology, Inc., Santa Cruz, USA), cdk4 (C-22), cdk6 (C-21), p27^KIP1 (C-19), (K25020), p45^SKP2 (N-19), HPV18-E7 (N-19) and E2F-1 (KH95) (Santa Cruz Biotechnology, Inc. Santa Cruz, USA), p21^CIP1 (C24420; Transduction Laboratories, Lexington, USA), pRB (NCL-RB; Novocastra, UK), p16^INK4 (15126E, Pharmingen, San Diego, USA) and HPV 16 E7 (ZYMED Lab. Inc., San Francisco, USA). Cyclin A was kindly provided by M. Pagano (Pagano et al., EMBO J. 11 (1992), 961-971). Equal protein transfer and loading was routinely checked by incubating the filters with a monoclonal actin antibody (ICN Biomedicals, Ohio, USA).
Western blot analysis: 50 μg of protein was separated in 8% (for pRb) and 12% SDS-PAGE gels. After electrotransfer, the filters were incubated with pRb, E2F-1 (f) and (g) p53 specific antibodies. […]

[2] = test system: cyclin A; assay: Western blot of cyclin A in HeLa cells; type: cell-based, human; conditions: 16 hours
Description: (§2) 50 μg of protein were separated on 12% SDS-PAGE minigels. After electrotransfer, the filters were incubated with antibodies against cyclin D1, cyclin E, cyclin A or cdk2, cdk4 or cdk6 specific antibodies. Equal protein loading was confirmed by reincubating the filters with a monoclonal actin antibody.
as §1
(§3) 50 μg of protein was separated on 12% SDS-PAGE minigels. […]

[3] = test system: p27^KIP1; assay: Western blot of p27^KIP1 in HeLa cells; type: cell-based, human; conditions: 16 hours
Description: (§4) (A) Westem blot analysis. 50 μg of cellular protein were loaded on SDS-PAGE minigels. After electrotransfer, the filters were incubated with p21^CIP1, p27^KIP1, p16^INK4 and p45^SKP2. Equal protein loading was confirmed by a monoclonal actin antibody.
as §1
(§5) Western blot analysis. 50 μg of cellular protein was loaded on SDS-PAGE minigels. After electrotransfer, the filters were incubated with p21^CIP1, p27^KIP1, p16^INK4 and p45^SKP2. […]

[4] = test system: HPV16 E6/E7 transcription; assay: Northern blot of HPV16 transcription in "1321" keratinocytes; type: cell-based
Description: Keratinocytes immortalized with HPV16 E6/E7 either under control of (A) the homologues viral upstream regulatory region (,1637″) or (B) of the β-actin promoter (,1321″) were incubated with NaB for various periods of time. 5 μg of RNA was separated in 1% agarose gels. The filters were hybridized with probes specific for HPV16, p21^CIP1 (=p21), β-actin and GAPDH. The positions of the 28S and 18S ribosomal RNA are indicated. (Contr.): untreated cells.
(A) 5 μg of RNA was separated in 1% agarose gels. The filters were hybridized with HPV 16, p21^CIP1 (=) p21 and GAPDH-specific probes. The positions of the 28S and 18S ribosomal RNA are indicated.
Total cellular RNA was extracted according to the guanidinium-thiocyanate procedure (Chomczynski and Sacchi, Anal. Biochem. 162 (1987), 156-159). Approximately 5 μg RNA were separated on 1% agarose gels in the presence of ethidium bromide under non-denaturing conditions and transferred to GeneScreen Plus membranes (DuPont, Bad Homburg, Deutschland). The filters were hybridized under stringent conditions with specific probes, which were labeled with ^32p-dCTP by random priming (Feinberg and Vogelstein, Anal. Biochem. 137 (1984), 266-267).

[5] = test system: cyclin E; assay: Western blot of cyclin E in HeLa cells; type: cell-based, human; conditions: 16 hours
Description: as §2, §1, §3

[6] = test system: cdk2; assay: Histone H1 kinase assay of cdk2 complexes immunoprecipitated from HeLa cells; type: cell-based, human; conditions: for cdk2 kinase activity, time course: 6 mM sodium butyrate, 3, 6, 9, 12 and 16 hours; for cdk2 kinase activity (histone H1): 16 hours
Description: (A) Autoradiography. Cdk2 complexes were immunoprecipitated from HeLa cells and assayed for their activity using histone H1 as substrate. (“[…]”: preimmune serum).
(B) Cdk2 activity after NaB application. Upper panel: Cdk 2 complexes were immunoprecipitated and assayed for their activity using histone H1 as substrate. Lower panels: Western blot analysis of the cdk 2 complexes which were precipitated, separated in a 12% SDS-PAGE gel and immunoblotted with specific antibodies used in panel A. Loading was verified by incubation with cdk 2 antibodies.
For cell fractionation, cell monolayers were washed twice with PBS and harvested by trypsinisation. Cell extract preparation and cdk2 activity assays were exactly done as described by Blomberg and Hoffmann, Mol. Cell. Biol. 19 (1999), 6183-6194. In addition, cdk2 was immunoprecipitated and analyzed by immunoblotting. Beads used for cdk2 kinase assay were washed 3 times with lysis buffer (Blomberg and Hoffmann, 1999), incubated with Laemmli sample buffer and boiled for 5 min. Supernatant was analyzed by SDS-PAGE gels. Immunoblotting was carried out with the following antibodies: p21^CIP1 (C24420) and p27^KIP1 (K25020; Transduction Laboratories) or HPV18-E7 (N-19; Santa Cruz, Inc.). Cdk2 specific antibodies or preimmune serum were kindly provided by I. Hoffmann (DKFZ, Heidelberg).
Autoradiography. Cdk2 complexes were immunoprecipitated from HeLa cells and assayed for their activity using histone H1 as substrate. (“PI”: preimmune serum).
Autoradiography. Cdk2 complexes were immunoprecipitated from HeLa cells and assayed for their activity as in (c). […] (Contr.): untreated cells harvested after 3, 6, 9, 12, and 16 hours.

[7] = test system: p21^CIP1; assay: Western blot of p21^CIP1 in HeLa cells; type: cell-based, human; conditions: 16 hours
Description: as §4, §1, §5

[8] = test system: p45^SKP2; assay: Western blot of p45^SKP2 in HeLa cells; type: cell-based, human; conditions: 16 hours
Description: as §4, §1, §5

Row | Structure (SMILES) | pRb protein level ([1]; 6 mM sodium butyrate) | cyclin A protein level ([2]; 6 mM sodium butyrate) | p27^KIP1 protein level ([3]; 6 mM sodium butyrate) | HPV16 transcription, time course ([4]; "1321" cells, NaB, induced three hours after treatment) | HPV mRNA after longer incubation ([4]; NaB, 16 hours) | cyclin E protein level ([5]; 6 mM sodium butyrate) | cdk2 kinase activity, time course [6] | cdk2 kinase activity, time course ([6]; listed as NaB) | cdk2 kinase activity (histone H1) ([6]; 6 mM sodium butyrate, vs untreated control) | p21^CIP1 protein level ([7]; 6 mM sodium butyrate) | p45^SKP2 protein level ([8]; 6 mM sodium butyrate) | pRb protein level ([1]; 330 nM trichostatin A) | cyclin A protein level ([2]; 330 nM trichostatin A) | p27^KIP1 protein level ([3]; 330 nM trichostatin A) | divergent HPV16 regulation in "1637" and "1321" cells ([4]; TSA (data not shown)) | cyclin E protein level ([5]; 330 nM trichostatin A) | cdk2 kinase activity (histone H1) ([6]; 330 nM trichostatin A) | p21^CIP1 protein level ([7]; 330 nM trichostatin A) | p45^SKP2 protein level ([8]; 330 nM trichostatin A, listed as Trichostatin A)
1 | CCCC(=O)[O-].[Na+] [sodium butyrate] | totally degraded | selectively downregulates | significantly induced | strong upregulation | declined to basal levels | strongly increased | still active after 9 hours, but abruptly declined 3 hours later | remained active up to 9 hours, but immediately declined between 12-16 hours | completely abolished | significantly induced | strongly suppressed | – | – | – | – | – | – | – | –
2 | CC(/C=C/C(=O)NO)=C\[C@@H](C)C(=O)c1ccc(N(C)C)cc1 [trichostatin A] | – | – | – | – | – | – | – | – | – | – | – | Mediates pRB Degradation | Downregulates | Upregulates | Analogous results | Upregulates | Suppresses | Induces | Suppresses

From US20040132817A1, “Use of an histone deacetylase inhibitor for the treatment of diseases associated with an hpv infection” (priority 2001, published 2004)
